Laboratory results: patent US20170114049A1, “2,5-DISUBSTITUTED CYCLOPENTANE CARBOXYLIC ACIDS FOR THE TREATMENT OF RESPIRATORY TRACT DISEASES” (BAYER PHARMA AKTIENGESELLSCHAFT, priority 2014, published 2017)

Columns and labels:
MMP-10 = biological target: T1, MMP-10 (Homo sapiens, UniProt P09238); assay: In vitro MMP-10 inhibition test; format: biochemical
T1 construct: purchased R&D Systems 910-MP
From the text: (§1) The MMP-mediated amidolytic cleavage of a suitable peptide substrate leads to an increase in fluorescent light here too. The signal intensity of the fluorescent light is directly proportional to the enzyme activity. The active concentration of a test compound at which half the enzyme is inhibited (50% signal intensity of the fluorescent light) is reported as the […].
(§2) Recombinant MMP-10 (from R&D Systems, 910-MP) is chemically activated in accordance with the manufacturer's instructions using APMA. 1 μl of the test compound to be analysed (as a solution in DMSO, suitable concentrations, for example, 1 nM to 30 μM) is pipetted into 24 μl of activated enzyme (final concentration, for example, 2 nM) in reaction buffer (50 mM Tris/HCl pH 7.5, 10 mM CaCl2, 150 mM NaCl, 0.05% Brij®-35) in a white 384-hole microtiter plate (MTP). The enzymatic reaction is started by adding the intramolecularly quenched Mca-Arg-Pro-Lys-Pro-Val-Glu-Nval-Trp-Arg-Lys(Dnp)-NH2 substrate (final concentration, for example, 10 μM; R&D Systems, ES-002), so as to result in a total test volume of 50 μl. The course of the MMP-10 reaction is measured by measuring the fluorescence intensity (excitation 320 nm, emission 410 nm) over a suitable period of time (for example over 120 min at a temperature of 32° C.).

MMP-3 = biological target: T2, MMP-3 (Homo sapiens, UniProt P08254); assay: In vitro MMP-3 inhibition test; format: biochemical
T2 construct: purchased R&D Systems 513-MP
T2 sequence (P08254 100-477): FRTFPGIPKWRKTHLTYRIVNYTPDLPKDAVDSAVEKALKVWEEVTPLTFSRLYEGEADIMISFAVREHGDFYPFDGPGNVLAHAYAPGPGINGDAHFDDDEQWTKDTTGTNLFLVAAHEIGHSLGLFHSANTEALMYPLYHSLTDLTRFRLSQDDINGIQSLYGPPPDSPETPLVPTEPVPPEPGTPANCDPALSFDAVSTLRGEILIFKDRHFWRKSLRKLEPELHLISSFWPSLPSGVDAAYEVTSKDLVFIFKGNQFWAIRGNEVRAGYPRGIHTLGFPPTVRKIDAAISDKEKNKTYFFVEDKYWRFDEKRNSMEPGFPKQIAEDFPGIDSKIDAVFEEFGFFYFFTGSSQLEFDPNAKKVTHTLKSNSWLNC
From the text: as §1
as §2, with “MMP-3” for “MMP-10”, “513-MP)” for “910-MP)”

mouse MMP-8 = biological target: T3, mouse MMP-8 (Mus musculus, UniProt O70138); assay: In vitro mouse MMP-8 inhibition test; format: biochemical
T3 construct: purchased R&D Systems 2904-MP
T3 sequence (O70138 101-465): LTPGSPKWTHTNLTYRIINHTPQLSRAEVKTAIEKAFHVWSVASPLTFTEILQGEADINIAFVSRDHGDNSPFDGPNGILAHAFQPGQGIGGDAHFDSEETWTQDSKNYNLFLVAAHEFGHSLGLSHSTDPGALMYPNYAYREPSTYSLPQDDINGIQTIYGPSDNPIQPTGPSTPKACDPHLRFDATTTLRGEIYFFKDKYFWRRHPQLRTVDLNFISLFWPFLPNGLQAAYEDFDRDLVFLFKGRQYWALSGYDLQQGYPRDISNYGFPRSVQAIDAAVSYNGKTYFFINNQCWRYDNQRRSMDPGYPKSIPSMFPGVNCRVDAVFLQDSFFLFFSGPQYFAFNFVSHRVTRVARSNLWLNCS

mouse MMP-3 = biological target: T4, mouse MMP-3 (Mus musculus, UniProt P28862); assay: In vitro mouse MMP-3 inhibition test; format: biochemical
T4 construct: purchased R&D Systems 548-MP
T4 sequence (P28862 100-477): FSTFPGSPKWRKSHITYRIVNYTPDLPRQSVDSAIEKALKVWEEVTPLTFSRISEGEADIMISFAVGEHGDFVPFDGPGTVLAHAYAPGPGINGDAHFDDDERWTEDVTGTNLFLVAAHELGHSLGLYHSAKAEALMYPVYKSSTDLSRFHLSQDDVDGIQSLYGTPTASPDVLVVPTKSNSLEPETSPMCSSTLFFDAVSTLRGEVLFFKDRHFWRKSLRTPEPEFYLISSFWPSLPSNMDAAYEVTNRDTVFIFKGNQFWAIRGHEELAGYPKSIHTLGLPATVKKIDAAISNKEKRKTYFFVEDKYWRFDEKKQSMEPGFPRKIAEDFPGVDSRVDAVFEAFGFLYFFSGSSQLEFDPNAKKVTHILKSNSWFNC

mouse MMP-2 = biological target: T5, mouse MMP-2 (Mus musculus, UniProt P33434); assay: In vitro mouse MMP-2 inhibition test; format: biochemical
T5 construct: purchased R&D Systems 924-MP
T5 sequence (P33434 110-662): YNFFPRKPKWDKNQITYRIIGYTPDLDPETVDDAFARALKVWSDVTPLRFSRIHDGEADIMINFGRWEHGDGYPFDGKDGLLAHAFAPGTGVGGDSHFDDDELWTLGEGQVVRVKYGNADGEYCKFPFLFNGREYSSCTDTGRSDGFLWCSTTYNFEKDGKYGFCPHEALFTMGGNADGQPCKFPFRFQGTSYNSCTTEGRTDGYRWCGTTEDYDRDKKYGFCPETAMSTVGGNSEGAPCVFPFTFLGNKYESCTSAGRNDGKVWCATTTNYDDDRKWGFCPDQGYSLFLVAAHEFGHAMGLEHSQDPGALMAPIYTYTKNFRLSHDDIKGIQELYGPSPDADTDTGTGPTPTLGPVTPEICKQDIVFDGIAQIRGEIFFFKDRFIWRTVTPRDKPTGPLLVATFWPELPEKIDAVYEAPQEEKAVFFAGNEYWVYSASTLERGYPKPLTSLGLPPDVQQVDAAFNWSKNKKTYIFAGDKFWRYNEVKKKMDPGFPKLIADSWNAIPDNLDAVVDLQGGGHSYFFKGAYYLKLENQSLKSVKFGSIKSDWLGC
From the text: as §1
as §2, with “Recombinant mouse MMP-2” for “Recombinant MMP-10”, “Systems, 924-MP)” for “Systems, 910-MP)”, “example, 0.1” for “example, 2”, “quenched Mca-Pro-Leu-Gly-Leu-Dpa(Dnp)-Ala-Arg-NH2” for “quenched Mca-Arg-Pro-Lys-Pro-Val-Glu-Nval-Trp-Arg-Lys(Dnp)-NH2”, “Systems, ES-001),” for “Systems, ES-002),”, “the MMP-2” for “the MMP-10”

rat hepatocytes = assay: Hepatocyte assay for determination of metabolic stability; conditions: after incubation with rat hepatocytes
Procedure: Seven samples from the incubation solution are taken for the LC-MS analysis within a fixed time pattern, in order to determine the half-life (i.e. the degradation) of the particular compound. This half life is used to calculate various “Clearance” parameters (CL) and “Fmax” values (see below).
The CL and Fmax values are a measure of the phase 1 and phase 2 metabolism of the compounds in the hepatocytes. In order to minimize the influence of the organic solvent on the enzymes in the incubation batches, the concentration thereof is generally limited to 1% (acetonitrile) or 0.1% (DMSO).
For all species and breeds, a hepatocyte cell count in the liver of 1.1*10^8 cells/g of liver is expected.
The parameters calculated and the meanings thereof are: • Fmax well-stirred [%] maximum possible bioavailability after oral administration • Calculation: (1-CLblood well-stirred/QH)*100 • CLblood well-stirred [L/(h*kg)] calculated blood clearance (well-stirred model) • Calculation: (QH*CLintrinsic)/(QH+CL′intrinsic) • CL′intrinsic[ml/(min*kg)] maximum ability of the liver (of the hepatocytes) to metabolize a compound (assuming that the liver blood flow is not rate-limiting) • Calculation: CLintrinsic, apparent* species-specific hepatocyte count [1.1* 10^8/g liver]*species-specific liver weight [g/kg] • CL′intrinsic, apparent[ml/(min*mg)] normalizes the elimination constant by dividing it by the hepatocyte cell count x used (x*10^6/ml) • Calculation: kcl[1/min]/(cell count [x*10^6]/incubation volume [ml]) • (QH=species-specific liver blood flow).

T1 sequence (P09238 99-476): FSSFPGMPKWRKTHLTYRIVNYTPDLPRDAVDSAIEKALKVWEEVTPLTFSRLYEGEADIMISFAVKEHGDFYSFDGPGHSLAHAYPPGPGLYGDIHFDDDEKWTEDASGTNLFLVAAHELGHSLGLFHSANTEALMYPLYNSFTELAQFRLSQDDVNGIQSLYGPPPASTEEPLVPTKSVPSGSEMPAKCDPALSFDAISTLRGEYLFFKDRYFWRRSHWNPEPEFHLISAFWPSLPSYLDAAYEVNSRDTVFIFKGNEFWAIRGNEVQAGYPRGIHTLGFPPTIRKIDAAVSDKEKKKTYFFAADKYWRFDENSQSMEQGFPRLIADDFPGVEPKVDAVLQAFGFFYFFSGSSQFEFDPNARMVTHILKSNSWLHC

Molecule	IC50 (MMP-10)	IC50 (MMP-3)	IC50 (mouse MMP-8)	IC50 (mouse MMP-3)	IC50 (mouse MMP-2)	CLblood (calculated blood clearance, well-stirred) (rat hepatocytes)	Fmax (maximum possible bioavailability after oral administration, well-stirred) (rat hepatocytes)
O=C(O)[C@@H]1[C@@H](Cn2nnc3ccccc3c2=O)CC[C@H]1C(=O)c1ccc(OCCC2CCOCC2)cc1 (single isomer, unassigned) [Example 5, (+)-(1RS,2SR,5RS)-2-[(4-Oxo-1,2,3-benzotriazin-3(4H)-yl)methyl]-5-{4-[2-(tetrahydro-2H-pyran-4-yl)ethoxy]benzoyl}cyclopentanecarboxylic acid]	0.013 µM	0.36 µM	0.054 µM	0.27 µM	0.045 µM		
O=C(O)[C@H]1[C@H](Cn2nnc3ccccc3c2=O)CC[C@@H]1C(=O)c1ccc(OCC2CCOCC2)cc1 (stereo in doubt) [Example 1, (+/−)-(1RS,2SR,5RS)-2-[(4-Oxo-1,2,3-benzotriazin-3(4H)-yl)methyl]-5-[4-(tetrahydro-2H-pyran-4-ylmethoxy)benzoyl]cyclopentanecarboxylic acid]	0.12 µM	1.1 µM	0.04 µM	0.57 µM	0.17 µM	17 mL/min/kg	75.7%
O=C(O)[C@@H]1[C@@H](Cn2nnc3ccccc3c2=O)CC[C@H]1C(=O)c1ccc(OCC2CCOCC2)cc1 (stereo in doubt) [Example 2, (+)-(1RS,2SR,5RS)-2-[(4-Oxo-1,2,3-benzotriazin-3(4H)-yl)methyl]-5-[4-(tetrahydro-2H-pyran-4-ylmethoxy)benzoyl]cyclopentanecarboxylic acid]	0.08 µM	0.71 µM	0.021 µM	0.71 µM	0.058 µM	7.33 mL/min/kg	89.5%
O=C(O)[C@H]1[C@H](Cn2nnc3ccccc3c2=O)CC[C@@H]1C(=O)c1ccc(OCCC2CCOCC2)cc1 (stereo in doubt) [Example 4, (+/−)-(1RS,2SR,5RS)-2-[(4-Oxo-1,2,3-benzotriazin-3(4H)-yl)methyl]-5-{4-[2-(tetrahydro-2H-pyran-4-yl)ethoxy]benzoyl}cyclopentanecarboxylic acid]	0.17 µM		0.37 µM	4 µM	0.49 µM		
(+)-(1RS,2SR,5RS)-2-{[4-Oxo-6-(trifluoromethyl)-1,2,3-benzotriazin-3(4H)-yl]methyl}-5-[4-(tetra-hydro-2H-pyran-4-ylmethoxy)benzoyl]cyclopentanecarboxylic acid [Example 8]	0.012 µM	0.1 µM				4.83 mL/min/kg	93.1%

Next, values leading:

IC50 (MMP-10)	IC50 (MMP-3)	IC50 (mouse MMP-8)	IC50 (mouse MMP-3)	IC50 (mouse MMP-2)	CLblood (calculated blood clearance, well-stirred) (rat hepatocytes)	Fmax (maximum possible bioavailability after oral administration, well-stirred) (rat hepatocytes)	Molecule
11 µM	0.19 µM						O=C(O)[C@H]1[C@H](Cn2nnc3ccc(C(F)(F)F)cc3c2=O)CC[C@@H]1C(=O)c1ccc(OCC2CCOCC2)cc1 (racemic) [Example 7, (+/−)-(1RS,2SR,5RS)-2-{[4-Oxo-6-(trifluoromethyl)-1,2,3-benzotriazin-3(4H)-yl]methyl}-5-[4-(tetrahydro-2H-pyran-4-ylmethoxy)benzoyl]cyclopentanecarboxylic acid]
0.058 µM	1.4 µM	0.15 µM	3.1 µM	0.84 µM			Cc1ccc2nnn(C[C@@H]3CC[C@H](C(=O)c4ccc(OCCC5CCOCC5)cc4)[C@H]3C(=O)O)c(=O)c2c1 (racemic) [Example 19, (+/−)-(1RS,2SR,5RS)-2-[(6-Methyl-4-oxo-1,2,3-benzotriazin-3(4H)-yl)methyl]-5-{4-[2-(letrahydro-2H-pyran-4-yl)ethoxy]benzoyl}cyclopentanecarboxylic acid]
0.018 µM	0.26 µM	0.034 µM	0.62 µM	0.64 µM			O=C(O)[C@@H]1[C@@H](Cn2nnc3ccc(C(F)(F)F)cc3c2=O)CC[C@H]1C(=O)c1ccc(OCCC2CCOCC2)cc1 (single isomer, unassigned) [Example 11, (+)-(1RS,2SR,5RS)-2-{[4-Oxo-6-(trifluoromethyl)-1,2,3-benzotriazin-3(4H)-yl]methyl}-5-{4-[2-(tetrahydro-2H-pyran-4-yl)ethoxy]benzoyl}cyclopentanecarboxylic acid]
0.009 µM	0.095 µM						O=C(O)[C@@H]1[C@@H](Cn2nnc3ccc(C(F)(F)F)cc3c2=O)CC[C@H]1C(=O)c1ccc(SCC2CCOCC2)cc1 (single isomer, unassigned) [Example 15, (+)-(1RS,2SR,5RS)-2-{[4-Oxo-6-(trifluoromethyl)-1,2,3-benzotriazin-3(4H)-yl]methyl}-5-{4-[(tetrahydro-2H-pyran-4-ylmethyl)sulphanyl]benzoyl}cyclopentanecarboxylic acid]
0.031 µM	0.44 µM	0.046 µM	0.67 µM	0.34 µM			Cc1ccc2nnn(C[C@H]3CC[C@@H](C(=O)c4ccc(OCCC5CCOCC5)cc4)[C@@H]3C(=O)O)c(=O)c2c1 (single isomer, unassigned) [Example 20, (+)-(1RS,2SR,5RS)-2-[(6-Methyl-4-oxo-1,2,3-benzotriazin-3(4H)-yl)methyl]-5-{4-[2-(tetrahydro-2H-pyran-4-yl)ethoxy]benzoyl}cyclopentanecarboxylic acid]
5.1 µM	0.12 µM	0.014 µM	0.12 µM	0.3 µM			O=C(O)[C@H]1[C@H](Cn2nnc3ccc(C(F)(F)F)cc3c2=O)CC[C@@H]1C(=O)c1ccc(OCCC2CCOCC2)cc1 (stereo in doubt) [Example 10, (+/−)-(1RS ,2S R,5RS)-2-{[4-Oxo-6-(trifluoromethyl)-1,2,3-benzotriazin-3(4H)-yl]methyl}-5-{4-[2-(tetrahydro-2H-pyran-4-yl)ethoxy]benzoyl}cyclopentanecarboxylic acid]
